Source: ChEMBL document CHEMBL1201862, “PubChem BioAssay data set” (2004)
The source made the active and inactive calls. Cut-off read from the data, not from the text of the source: actives have a measured IC50 and inactives only a lower limit.

Molecular target: Envelope glycoprotein gp160 (Human immunodeficiency virus 1, UniProt Q6QLK5)
Experiment: cell-free HIV fusion peptide-binding blockers – biochemical, uHTS, fluorescence dequenching, […] (AID 1986)

Sequence of Envelope glycoprotein gp160 (Q6QLK5 whole entry, the tested form may be a part): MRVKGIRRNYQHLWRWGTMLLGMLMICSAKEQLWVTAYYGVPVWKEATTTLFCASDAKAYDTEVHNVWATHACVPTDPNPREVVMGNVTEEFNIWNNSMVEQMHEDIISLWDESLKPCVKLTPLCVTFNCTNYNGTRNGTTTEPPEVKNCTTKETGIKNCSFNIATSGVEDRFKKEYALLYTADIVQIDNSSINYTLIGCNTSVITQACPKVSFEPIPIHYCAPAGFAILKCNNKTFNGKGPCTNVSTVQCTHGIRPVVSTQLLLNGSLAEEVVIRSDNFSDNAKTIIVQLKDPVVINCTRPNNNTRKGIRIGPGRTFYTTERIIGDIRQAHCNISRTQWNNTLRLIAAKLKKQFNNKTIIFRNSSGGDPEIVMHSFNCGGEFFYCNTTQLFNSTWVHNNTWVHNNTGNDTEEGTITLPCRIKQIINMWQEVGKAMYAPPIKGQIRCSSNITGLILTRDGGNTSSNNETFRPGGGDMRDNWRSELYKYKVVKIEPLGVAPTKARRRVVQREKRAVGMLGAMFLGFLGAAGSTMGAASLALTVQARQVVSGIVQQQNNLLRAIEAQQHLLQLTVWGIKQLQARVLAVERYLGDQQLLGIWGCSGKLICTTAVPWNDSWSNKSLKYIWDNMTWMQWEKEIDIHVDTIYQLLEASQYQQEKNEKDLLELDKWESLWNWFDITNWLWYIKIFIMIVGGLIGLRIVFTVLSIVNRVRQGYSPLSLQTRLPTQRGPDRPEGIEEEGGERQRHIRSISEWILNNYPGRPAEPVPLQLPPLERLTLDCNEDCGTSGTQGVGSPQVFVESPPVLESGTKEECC

Row | Structure (SMILES) | IC50
1 | COc1ccc(-c2csc(NC(=O)c3ccccc3NS(=O)(=O)c3ccc(C)cc3)n2)cc1 | 12.4 µM (active)
2 | CCCCCNC(=O)c1ccc2c(=O)[nH]c3c(C(=O)NCC4CCCO4)sc(=S)n3c2c1 (stereo not drawn) | 20 µM (active)
3 | CC(C)(C)c1ccc2c(c1)OC(C(=O)N/N=C\c1ccc(-c3cccc(C(=O)O)c3)o1)CO2 (stereo not drawn) | 14.1 µM (active)
